Test results published in patent US6737425B1, “N,N-substituted cyclic amine derivatives” (Eisai Co., Ltd., priority 1998, dated 2004).
pIC50: −log10 of the molar value. Structures can show the parent of a compound that is named as a salt.

System: voltage-dependent calcium channels (cerebral cortex synaptosome)
Experiment: Measurement of voltage-dependent calcium channel activity by the use of a fluorescent pigment (fura 2)
Assay type: cell-based
Conditions: rat cerebral cortex synaptosome, fura 2, KCl stimulation, compound incubated 10 minutes
Experimental: Measurement of Voltage-dependent Calcium Channel Activity by the use of a Fluorescent Pigment (fura 2)
Cerebral cortexes were removed from cut rat brains and disrupted roughly with scissors. These were introduced into a homogenizer, homogenized in 0.3 M saccharose and centrifuged at 4° C. (1,500 g×10 min). The resulting supernatant was further centrifuged at 4° C. (10,000 g×20 min). The resulting precipitates were suspended in 0.3 M saccharose. The suspension was layered on 0.8 M saccharose and centrifuged (10,000 g×30 min.).
4 μM fura 2/AM (Dojin Ltd.) was suspended in solution A to prepare a loading solution. To the synaptosome solution prepared in the method described above was added an equal volume of the loading solution, and the mixture was incubated for 40 minutes at room temperature.
As comparative and control compound, verapamil hydrochloride was used.

Row | SMILES | pIC50 | pIC50 (Hydrochloride)
1 | CC(C)(O)C(C#N)(CCCN1CCN(CCOc2ccc(F)cc2)CC1)c1ccccc1 (stereo not drawn) [Example 81, 1-[(4-Cyano-5-hydroxy-5-methyl-4-phenyl)hexyl]-4-[2-(4-fluorophenoxyl)ethyl]piperazine] | < 4.80 | –
2 | CC(C)C(C#N)(CCCN1CCN(CCOc2cccc(-c3cccnc3)c2)CC1)c1ccccc1 (stereo not drawn) [Example 107, 1-[(4-Cyano-5-methyl-4-phenyl)hexyl]-4-{2-[3-(3-pyridyl)phenoxy]ethyl}piperazine] | 5.39 | –
3 | CCC(C#N)(CCCN1CCN(CCOc2ccc(F)cc2)CC1)c1ccccc1 (stereo not drawn) [Example 28, 1-[(4-Cyano-4-phenyl)hexyl]-4-[2-(4-fluorophenoxy)ethyl]piperazine] | 5.14 | –
4 | CC(=O)N(CCN1CCN(CCCC(C#N)(c2ccccc2)C(C)C)CC1)Cc1ccccc1 (stereo not drawn) [Example 56, 1-[(4-Cyano-5-methyl-4-phenyl)hexyl]-4-[2-(N-acetyl-N-benzylamino)ethyl]piperazine] | 4.80 | –
5 | CC(C)C(C#N)(CCCN1CCN(CCOc2ccc(F)cc2O)CC1)c1ccccc1 (stereo not drawn) [Example 84, 1-[(4-Cyano-5-methyl-4-phenyl)hexyl]-4-[2-(2-hydroxy-4-fluorophenoxy)ethyl]piperazine] | 5.22 | –
6 | CC(C)C(C#N)(CCCN1CCN(CCC(=O)Nc2ccc(F)cc2)CC1)c1ccccc1 (stereo not drawn) [Example 63, 1-[(4-Cyano-5-methyl-4-phenyl)hexyl]-4-[2-(4-fluorophenylaminocarbonyl)ethyl]piperazine] | 5.13 | –
7 | CC(C)C(C#N)(CCCN1CCCN(CCOc2ccc(F)cc2)CC1)c1ccccc1 (stereo not drawn) [Example 3] | 5.32 | –
8 | CC(C)C(C#N)(CCCN1CCN(CCOc2cccc(Br)c2)CC1)c1ccccc1 (stereo not drawn) [Example 109, 1-[(4-Cyano-5-methyl-4-phenyl)hexyl]-4-[2-(3-bromophenoxy)ethyl]piperazine] | 5.48 | –
9 | CC(C)C(C#N)(CCCN1CCN(CCOCc2ccccc2)CC1)c1ccccc1 (stereo not drawn) [Example 48, 1-[(4-Cyano-5-methyl-4-phenyl)hexyl]-4-[2-(benzyloxy)ethyl]piperazine] | 5.08 | –
10 | CC(C)C(C#N)(CCN1CCN(CCCOc2ccc(F)cc2)CC1)c1ccccc1 (stereo not drawn) [Example 5, 1-[(3-Cyano-4-methyl-3-phenyl)pentyl]-4-[3-(4-fluorophenoxy)propyl]piperazine] | 5.11 | –
11 | CC(C)C(C#N)(CCCN1CCN(CCOc2ccc([N+](=O)[O-])cc2)CC1)c1ccccc1 (stereo not drawn) [Example 8, 1-[(4-Cyano-5-methyl-4-phenyl)hexyl]-4-[2-(4-nitrophenoxy)ethyl]piperazine] | 5.38 | –
12 | CC(C)C(C#N)(CCCN1CCN(CCOc2ccncc2)CC1)c1ccccc1 (stereo not drawn) [Example 99, 1-[(4-Cyano-5-methyl-4-phenyl)hexyl]-4-[2-(4-pyridyloxy)ethyl]piperazine] | < 4.80 | –
13 | CC(C)CC(C#N)(CCCN1CCN(CCOc2ccc(F)cc2)CC1)c1ccccc1 (stereo not drawn) [Example 30, 1-[(4-Cyano-6-methyl-4-phenyl)hepthyl]-4-[2-(4-fluorophenoxy)ethyl]piperazine] | 5.54 | –
14 | CC(C)C(C#N)(CCCN1CCN(CCN(C)S(=O)(=O)c2ccc(F)cc2)CC1)c1ccccc1 (stereo not drawn) [Example 69, 1-[(4-cyano-5-methyl-4-phenyl)hexyl]-4-[2-(N-methyl-4-fluorobenzenesulfonylamino)ethyl]piperazine] | 5.04 | –
15 | CC(C)C(C#N)(CCCN1CCN(C(=O)COc2ccc(F)cc2)CC1)c1ccccc1 (stereo not drawn) [Example 61, 1-[(4-Cyano-5-methyl-4-phenyl)hexyl]-4-[2-(4-fluorophenoxy)acetyl]piperazine] | 4.96 | –
16 | N#CC(CCCN1CCN(CCOc2ccc(F)cc2)CC1)(c1ccccc1)C1CCCCC1 (single isomer, unassigned; (+)) [Example 80, (+)-1-[(4-Cyano-4-cyclohexyl-4-phenyl)butyl]-4-[2-(4-fluorophenoxyl)ethyl]piperazine Hydrochloride] | – | 5.42
17 | CCCC(C#N)(CCCN1CCN(CCOc2ccc(F)cc2)CC1)c1ccccc1 (stereo not drawn) [Example 27, 1-[(4-Cyano-4-phenyl)heptyl]-4-[2-(4-fluorophenoxy)ethyl]piperazine] | 5.34 | –
18 | CC(C)C(C#N)(CCCN1CCN(CCOc2ccc(F)cc2)CC1)c1ccc(Cl)c(Cl)c1 (stereo not drawn) [Example 37, 1-{[4-Cyano-5-methyl-4-(3,4-dichlorophenyl)hexyl]}-4-[2-(4-fluorophenoxy)ethyl]piperazine] | 5.57 | –
19 | CC(C)c1ccc(N(C)CCN2CCN(CCCC(C#N)(c3ccccc3)C(C)C)CC2)cc1 (stereo not drawn) [Example 91, 1-[(4-Cyano-5-methyl-4-phenyl)hexyl]-4-{2-[N-methyl(4-isopropylanilino)ethyl]}piperazine] | 5.68 | –
20 | CC(C)C(C#N)(CCCN1CCN(CCOC(=O)Sc2ccc(F)cc2)CC1)c1ccccc1 (stereo not drawn) [Example 70, 1-[(4-Cyano-5-methyl-4-phenyl)hexyl]-4-{2-[(4-fluorophenylthio)carbonyloxyl]ethyl}piperazine] | 5.42 | –

Row | SMILES | pIC50 | pIC50 (Hydrochloride)
21 | CC(C)C(C#N)(CCCN1CCN(CCOc2ccc(F)cc2)CC1)c1ccc(N)cc1 (stereo not drawn) [Example 17, 1-[4-Cyano-5-methyl-4-(4-aminophenyl)hexyl]-4-[2-(4-fluorophenoxy)ethyl]piperazine] | < 4.80 | –
22 | CC(C)C(C#N)(CCCN1CCN(CCOc2ccc(Br)cc2)CC1)c1ccccc1 (stereo not drawn) [Example 108, 1-[(4-Cyano-5-methyl-4-phenyl)hexyl]-4-[2-(4-bromophenoxy)ethyl]piperazine] | 5.48 | –
23 | CC(C)C(C#N)(CCCN1CCN(CCOc2ccc(F)cc2)CC1)c1ccc(C=NO)cc1 (stereo not drawn) [Example 14, 1-[4-Cyano-5-methyl-4-(4-hydroxyiminomethylphenyl)hexyl]-4-[2-(4-fluorophenoxy)ethyl]piperazine] | 5.06 | –
24 | COC(=O)c1ccc(C(C#N)(CCCN2CCN(CCOc3ccc(F)cc3)CC2)C(C)C)cc1 (stereo not drawn) [Example 12, 1-[4-Cyano-5-methyl-4-(4-carbomethoxyphenyl)hexyl]-4-[2-(4-fluorophenoxy)ethyl]piperazine] | 5.09 | –
25 | CC(C)C(C#N)(CCCN1CCN(CCCCOc2ccccc2)CC1)c1ccccc1 (stereo not drawn) [Example 6, 1-[(4-Cyano-5-methyl-4-phenyl)hexyl]-4-(4-phenoxybutyl)piperazine] | 5.57 | –
26 | CC(C)C(C#N)(CCCN1CCN(CCN(c2ccccc2)C2CCCCC2)CC1)c1ccccc1 (stereo not drawn) [Example 90, 1-[(4-Cyano-5-methyl-4-phenyl)hexyl]-4-[2-(N-cyclohexylanilino)ethyl]piperazine] | 5.59 | –
27 | CC(C)C(C#N)(CCCN1CCN(CCC(=O)c2ccc(F)cc2)CC1)c1ccccc1 (stereo not drawn) [Example 59, 1-[(4-Cyano-5-methyl-4-phenyl)hexyl]-4-[2-(4-fluorobenzoyl)ethyl]piperazine] | 4.92 | –
28 | CC(C)C(C#N)(CCCN1CCN(CC(O)COc2ccc(F)cc2)CC1)c1ccccc1 (stereo not drawn) [Example 62, 1-[(4-Cyano-5-methyl-4-phenyl)hexyl]-4-[2-hydroxy-3-(4-fluorophenoxy)propyl]piperazine] | 5.06 | –
29 | CC(C)C(C#N)(CCCN1CCN(CCS(=O)(=O)Nc2ccc(F)cc2)CC1)c1ccccc1 (stereo not drawn) [Example 67, 1-[(4-Cyano-5-methyl-4-phenyl)hexyl]-4-{2-[N-(4-fluorophenyl)sulfamoyl]ethyl}piperazine] | 5.00 | –
30 | CC(C)c1cccc(N(C)CCN2CCN(CCCC(C#N)(c3ccccc3)C(C)C)CC2)c1 (stereo not drawn) [Example 92, 1-[(4-Cyano-5-methyl-4-phenyl)hexyl]-4-{2-[N-methyl(3-Isopropylanilino)ethyl]}piperazine] | 5.74 | –
31 | CCC(CN1CCN(CCCC(C#N)(c2ccccc2)C(C)C)CC1)Oc1ccc(F)cc1 (stereo not drawn) [Example 104, 1-[(4-Cyano-5-methyl-4-phenyl)hexyl]-4-[2-(4-fluorophenoxy)butyl]piperazine] | 5.66 | –
32 | CC(C)C(C#N)(CCCN1CCN(CCOc2ccc(C#N)cc2)CC1)c1ccccc1 (stereo not drawn) [Example 47, 1-[(4-Cyano-5-methyl-4-phenyl)hexyl]-4-[2-(4-cyanophenoxy)ethyl]piperazine] | 4.89 | –
33 | CC(C)C(C#N)(CCCN1CCN(CCNS(=O)(=O)c2ccc(F)cc2)CC1)c1ccccc1 (stereo not drawn) [Example 66, 1-[(4-Cyano-5-methyl-4-phenyl)hexyl]-4-[2-(4-fluorobenzenesulfonylamino)ethyl]piperazine] | 5.09 | –
34 | CC(C)C(C#N)(CCCN1CCN(CCS(=O)(=O)N(C)c2ccc(F)cc2)CC1)c1ccccc1 (stereo not drawn) [Example 68, 1-[(4-Cyano-5-methyl-4-phenyl)hexyl]-4-{2-[N-(4-fluorophenyl)-N-methylsulfamoyl]ethyl}piperazine] | 5.06 | –
35 | CC(C)C(C#N)(CCCN1CCN(CCOc2ncccn2)CC1)c1ccccc1 (stereo not drawn) [Example 112, 1-[(4-Cyano-5-methyl-4-phenyl)hexyl]-4-[2-(2-pyrimidinyloxy)ethyl]piperazine] | < 4.80 | –
36 | CC(C)C(C#N)(CCCN1CCN(CCOc2ccccc2-c2cccnc2)CC1)c1ccccc1 (stereo not drawn) [Example 113, 1-[(4-Cyano-5-methyl-4-phenyl)hexyl]-4-{2-[2-(3-pyridyl)phenoxy]ethyl}piperazine] | 5.35 | –
37 | CC(CCC(C#N)(c1ccccc1)C(C)C)N1CCN(CCOc2ccc(F)cc2)CC1 (stereo not drawn) [Example 97, 1-[{2-(5-Cyano-6-methyl-5-phenyl)heptyl}]-4-[2-(4-fluorophenoxy)ethyl]piperazine] | 5.41 | –
38 | CCOC(=O)COc1cc(F)ccc1OCCN1CCN(CCCC(C#N)(c2ccccc2)C(C)C)CC1 (stereo not drawn) [Example 86, 1-[(4-Cyano-5-methyl-4-phenyl)hexyl]-4-[2 (2-ethoxycarbonylmethoxy-4-fluorophenoxy)ethyl]piperazine] | 5.37 | –
39 | CC(C)C(C#N)(CCCN1CCN(CCOc2ncnc3ccccc23)CC1)c1ccccc1 (stereo not drawn) [Example 105, 1-[(4-Cyano-5-methyl-4-phenyl)hexyl]-4-[2-(4-quinazolinyloxy)ethyl]piperazine] | < 4.80 | –
